Assay results as given in patent publication US20080318837A1, “Pharmaceutical Formation For Increased Epithelial Permeability of Glucose-Regulating Peptide” (priority 2003, published 2008).

Columns and labels:
[1] = test system: ciliary motility; conditions: cited from earlier work
[2] = intraduodenally administered to rats; cited from earlier work
[3] = test system: aminopeptidases; conditions: cited from earlier work
[4] = aqueous solution, physiologic pH; cited from earlier work
[5] = test system: EpiAirway tracheal/bronchial epithelial cell membrane; assay: Transepithelial electrical resistance (TEER/TER), EpiAirway model; format: cell-based; conditions: Table 6 formulations, 2 mg/mL GLP-1
Experimental: Triplicate samples of each formulation and controls were evaluated using the EpiAirway System in vitro model tracheal/bronchial epithelial cell membrane inserts by MatTek Corp. (Ashland, Mass.), catalog #Air-100.
EpiAirway™ culture membranes were received the day before the experiments started. They were shipped in phenol red-free and hydrocortisone-free Dulbecco's Modified Eagle's Medium (DMEM). Each tissue insert was placed into a well of a 6 well plate containing 0.9 ml of serum free DMEM. The membranes were then cultured for 24 hrs at 37° C./5% CO2 to allow tissues to equilibrate. […]
TEER measurements were read using a Tissue Resistance Measurement Chamber connected to an Epithelial Voltohmeter with the electrode leads, both from World Precision Instruments. First, background TEER was read for each insert on the day the experiment began. After TEER was read, 1 ml fresh media was placed in the bottom of each well in a 6-well plate. […]
The electrodes and a tissue culture blank insert were equilibrated for at least 20 min in fresh media with the power off prior to checking calibration. The background resistance was measured with 1.5 ml media in the Endohm tissue chamber and 300 μl media in a blank Millicell-CM insert. […] For each TEER determination, 300 μl media was added to the insert followed by a 20 min incubation at RT before placement in the Endohm chamber to read TEER. […]

[6] = test system: EpiAirway tracheal/bronchial epithelial cell membrane
Experimental: Triplicate samples of each formulation and controls were evaluated using the EpiAirway System in vitro model tracheal/bronchial epithelial cell membrane inserts by MatTek Corp. (Ashland, Mass.), catalog #Air-100. […] The epithelial cells are grown on porous membrane-bottomed cell culture inserts at an air-liquid interface, which results in differentiation of the cells to a highly polarized morphology. The apical surface is ciliated with a microvillous ultrastructure and the epithelium produces mucus (the presence of mucin has been confirmed by immunoblotting). The inserts have a diameter of 0.875 cm, providing a surface area of 0.6 cm^2. The cells are plated onto the inserts at the factory approximately three weeks before shipping.
EpiAirway™ culture membranes were received the day before the experiments started. They were shipped in phenol red-free and hydrocortisone-free Dulbecco's Modified Eagle's Medium (DMEM). […]
The cell viability of each tissue culture insert was tested by MTT assay. Cell viability was assessed using the MTT assay (MTT-100, MatTek kit). […] The optical density of the samples was measured at 550 nm on a μQuant optical density plate reader using KCJr software.
The MTT percentage was calculated by dividing the measured MTT value for each formulation by the MTT value of the control formulation multiplied by 100. […]

[7] = test system: EpiAirway tracheal/bronchial epithelial cell membrane; assay: LDH cytotoxicity (cell death) assay, EpiAirway model; format: cell-based
Experimental: Fresh, cell-free media was used as a blank. 50 μl substrate solution (12 ml Assay Buffer added to a fresh bottle of Substrate Mix, made according to the kit) was added to each well and the plates were incubates for 30 min at RT in the dark.

[8] = after feeding to rats; cited from earlier work

## 2-alkyl-4-hydroxyquinolines [pyo compound]
[1]
  concentration producing ciliostasis / inhibiting ciliary motility: 50 µg/mL

## 9-desglycinamide, 8-arginine vasopressin [DGAVP]
[2]
  bioavailability increase with 1% (w/v) polycarbophil vs aqueous solution: 3-5 fold

## CC(C)CC(N)B(O)O (stereo not shown) [boro-leucine]
[3]
  enzyme inhibition, times more effective than bestatin: more than 100 times
  enzyme inhibition, times more effective than puromycin: more than 1000 times

## CCN(CC)/[N+]([O-])=N/O.CCNCC [diethylamine/NO]
[4]
  NO release rate (time): < 3 min

## NCCN(CCN)/[N+]([O-])=N/O [diethylenetriamine/NO]
[4]
  NO release rate (time): approximately 20 hours

## Octylphenolpoly(ethyleneglycolether)x [LDH Control]
[5]
  % TEER Reduction: 100%
[6]
  % MTT: 1%
[7]
  % LDH: 100%

## Phaseolus vulgaris hemagglutinin
[8]
  oral bioavailability: more than 10%
